Laboratory results taken from patent US20250188075A1, “SUBSTITUTED HETEROCYCLIC CSNK1 INHIBITORS” (The Broad Institute, Inc., priority 2022, published 2025).

Molecular target: human Ether-a-go-go-Related Gene (hERG) potassium channel (Homo sapiens (Human), UniProt Q12809)
Assay: hERG inhibition assay, automated voltage clamp
Format: cell-based
Conditions: HEK293 cells stably expressing hERG alpha subunit
Protocol: Following harvest, cells were transferred to the cell reservoir of a 384 channel automated patch clamp device and stored there at 20° C. until usage.
Upon start of the automated voltage clamp procedure, hERG cells were transferred to a 384 well patch clamp chip (pipette resistance of ˜[…] (2) prefilled with external solution (containing in mM: 143 NaCl, 4 KCl, 2 CaCl2), 1 MgCl2, 5 glucose, 10 HEPES; pH 7.4 (NaOH)). Underpressure was applied underneath the glass bottom of the patch clamp chip to position the hERG cells on the recording sites in the glass bottom of the chip. Following successful cell catch, underpressure was stopped and a seal enhancing solution (containing in mM: 78 NaCl, 60 NMDG, 4 KCl, 10 CaCl2), 1 MgCl2, 5 glucose, 10 HEPES; pH 7.4 (HCl)) was added to the hERG cells to facilitate the formation of stable seals between the membranes of the hERG cells and the glass next to the recording sites. Then, hERG cells were washed several times with wash solution (containing in mM: 87 NaCl, 60 NMDG, 4 KCl, 2 CaCl2), 1 MgCl2, 5 glucose, 10 HEPES; pH 7.4 (HCl)) to remove excess seal enhancing solution. In the meantime, the membrane parts of the hERG cells covering the recording sites were exposed to internal solution (containing in mM: 10 NaCl, 123 KF, 10 EGTA, 10 HEPES; pH 7.2 (KOH)) supplemented with 5-20 μM Escin, and the perforated patch configuration was established. Next, the holding potential was stepwise adjusted to −80 mV, capacitance was compensated, and a series of defined voltage commands was initiated to trigger the hERG current response from the hERG cells (−80 mV for 200 ms, +20 mV for 1000 ms, −40 mV for 500 ms; repeated at a frequency of 0.1 Hz). To determine whether the test item inhibits hERG, different solutions were sequentially applied to the hERG cells: First, a negative control (i.e. wash solution supplemented with 0.3% DMSO and 0.01% HSA) was applied for at least 3 min to investigate the basic electrophysiological properties of the hERG cells as well as define their standard current response. Next, a solution containing the test item at a final concentration of (0.1, 1, or 10) μM was applied for 10 min to measure eventual inhibitory effects of the test item on the hERG current (—the test item solution was produced from a 10 mM DMSO stock by using an automated pipetting device and sequential dilution). Finally, a positive control (i.e. wash solution supplemented with 0.3% DMSO, 0.01% HSA, and 10 μM quinidine) was added to the cells for ˜3 min to block the hERG current and, thereby, define the maximum inhibition. For data analysis, experimental results were processed using the automated patch clamp device-specific software as well as a custom-made software, and TIBCO Spotfire. For each successful recording, hERG tail current amplitudes were averaged from three consecutive current responses at the end of the negative control phase, test item phase, and positive control phase, respectively. Resulting mean hERG tail current amplitudes were normalized to the mean hERG tail current amplitude at the end of the negative control phase with nominal 0% inhibition as well as the hERG tail current amplitude at the end of the positive control phase with nominal 100% inhibition. Then, the effect of the test item was calculated as a percentage inhibition value at the test item concentration applied. Finally, percentage inhibition values from all successful recordings at a particular test item concentration were averaged and combined to construct a standard sigmoidal dose response curve, determine the half maximal inhibitory concentration (IC50) of the test item as well as extrapolate its IC20.

Sequence of human Ether-a-go-go-Related Gene (hERG) potassium channel (Q12809 whole entry): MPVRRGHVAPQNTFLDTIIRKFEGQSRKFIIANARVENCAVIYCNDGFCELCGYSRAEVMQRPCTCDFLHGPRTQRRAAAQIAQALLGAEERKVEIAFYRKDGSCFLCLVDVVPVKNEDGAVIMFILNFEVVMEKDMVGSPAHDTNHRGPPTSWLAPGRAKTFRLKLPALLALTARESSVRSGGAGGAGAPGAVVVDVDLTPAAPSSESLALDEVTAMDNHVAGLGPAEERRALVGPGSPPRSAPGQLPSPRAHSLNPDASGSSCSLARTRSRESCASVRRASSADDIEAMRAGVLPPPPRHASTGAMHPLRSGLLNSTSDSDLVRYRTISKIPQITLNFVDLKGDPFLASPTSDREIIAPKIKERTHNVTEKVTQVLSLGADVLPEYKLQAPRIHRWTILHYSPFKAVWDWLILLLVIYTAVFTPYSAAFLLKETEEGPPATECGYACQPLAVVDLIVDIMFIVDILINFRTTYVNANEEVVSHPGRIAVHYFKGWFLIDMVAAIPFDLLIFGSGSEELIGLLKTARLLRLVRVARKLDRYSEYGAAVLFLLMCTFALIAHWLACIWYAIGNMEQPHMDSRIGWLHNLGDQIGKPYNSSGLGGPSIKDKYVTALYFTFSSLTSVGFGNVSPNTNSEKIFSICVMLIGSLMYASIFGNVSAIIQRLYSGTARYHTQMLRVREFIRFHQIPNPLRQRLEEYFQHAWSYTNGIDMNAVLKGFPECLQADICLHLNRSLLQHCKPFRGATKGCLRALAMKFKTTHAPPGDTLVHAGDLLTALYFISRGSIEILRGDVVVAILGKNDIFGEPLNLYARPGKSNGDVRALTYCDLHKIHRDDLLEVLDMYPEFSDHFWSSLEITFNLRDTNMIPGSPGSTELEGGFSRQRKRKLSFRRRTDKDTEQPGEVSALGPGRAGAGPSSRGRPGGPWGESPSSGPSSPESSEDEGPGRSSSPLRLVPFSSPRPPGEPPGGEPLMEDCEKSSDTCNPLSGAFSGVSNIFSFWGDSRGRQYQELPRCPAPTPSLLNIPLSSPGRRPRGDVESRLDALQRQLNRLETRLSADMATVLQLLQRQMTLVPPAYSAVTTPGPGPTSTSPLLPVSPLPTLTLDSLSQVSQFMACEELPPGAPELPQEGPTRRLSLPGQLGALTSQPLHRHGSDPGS

| Structure (SMILES) | IC50 [µM] |
| --- | --- |
| Cc1nc(CC(=O)Nc2cc(-c3[nH]c4cccnc4c3-c3ccccn3)ccn2)cs1 [Example 3, 2-(2-methylthiazol-4-yl)-N-[4-[3-(2-pyridyl)-^1H-pyrrolo[3,2-b]pyridin-2-yl]-2-pyridyl]acetamide] | 5.98 |
| O=C(Cc1cnco1)Nc1cc(-c2[nH]c3cccnc3c2-c2ccccn2)ccn1 [Example 4] | > 10 |
| O=C(Cc1cnc2ccccc2n1)Nc1cc(-c2[nH]c3cccnc3c2-c2ccccn2)ccn1 [Example 6, N-[4-[3-(2-pyridyl)-^1H-pyrrolo[3,2-b]pyridin-2-yl]-2-pyridyl]-2-quinoxalin-2-yl-acetamide] | 5.35 |
| O=C(Cc1cc2ccccn2n1)Nc1cc(-c2[nH]c3cccnc3c2-c2ccccn2)ccn1 [Example 15, 2-pyrazolo[1,5-a]pyridin-2-yl-N-[4-[3-(2-pyridyl)-^1H-pyrrolo[3,2-b]pyridin-2-yl]-2-pyridyl]acetamide] | 1.45 |
| Cc1nc(C)c(CC(=O)Nc2cc(-c3[nH]c4cccnc4c3-c3ccccn3)ccn2)s1 [Example 18, 2-(2,4-dimethylthiazol-5-yl)-N-[4-[3-(2-pyridyl)-^1H-pyrrolo[3,2-b]pyridin-2-yl]-2-pyridyl]acetamide] | 2.05 |
| Cn1nc(CC(=O)Nc2cc(-c3[nH]c4cccnc4c3-c3ccccn3)ccn2)cc1C(F)(F)F [Example 21, 2-[1-methyl-5-(trifluoromethyl)pyrazol-3-yl]-N-[4-[3-(2-pyridyl)-^1H-pyrrolo[3,2-b]pyridin-2-yl]-2-pyridyl]acetamide] | 0.81 |
| CC(C)n1ccc(CC(=O)Nc2cc(-c3[nH]c4cccnc4c3-c3ccccn3)ccn2)n1 [Example 28, 2-(1-isopropylpyrazol-3-yl)-N-[4-[3-(2-pyridyl)-^1H-pyrrolo[3,2-b]pyridin-2-yl]-2-pyridyl]acetamide] | 8.69 |
